Test results taken from US20240083861A1, “HSD17B13 INHIBITORS AND USES THEREOF” (FL2022-001, Inc., priority 2020, published 2024).

Biological target: T1, Recombinant human HSD17B13 enzyme (Homo sapiens, UniProt Q7Z5P4)
T1 sequence (Q7Z5P4 20-300): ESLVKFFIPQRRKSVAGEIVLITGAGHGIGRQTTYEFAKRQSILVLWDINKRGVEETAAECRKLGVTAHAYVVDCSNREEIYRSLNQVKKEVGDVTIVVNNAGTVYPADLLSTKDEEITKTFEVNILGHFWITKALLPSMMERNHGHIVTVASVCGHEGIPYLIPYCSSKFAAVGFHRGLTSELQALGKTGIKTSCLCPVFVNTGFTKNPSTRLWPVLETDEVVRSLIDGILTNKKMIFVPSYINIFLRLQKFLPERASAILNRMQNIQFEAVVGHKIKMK
Assay: HSD17b13 NAD(P)H-Glo biochemical assay
Conditions: 50 uM estradiol, 1 mM NAD+, NAD(P)H-Glo luminescence; read-out: HSD17β13 IC50
How it was run: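 Luminescent NAD(P)H-Glo read-out, taken after 1 hour at RT, measured cofactor reduction. Substrate and cofactor were estradiol at 50 uM and NAD+ at 1 mM final, reacted with the recombinant human enzyme for 3 hours at 37° C in 20 mM Tris pH7.4, 0.002% Tween-20, 0.02% BSA. Compound was pre-incubated with enzyme for 20 minutes at RT.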

Row | SMILES | IC50
1 | CN1CCN(c2cc3c(cn2)c(-c2cc(C(F)(F)F)c(F)c(O)c2F)nn3C)CC1=O [Compound 9.68, 4-(3-(2,4-Difluoro-3-hydroxy-5-(trifluoromethyl)phenyl)-1-methyl-1H-pyrazolo[4,3-c]pyridin-6-yl)-1-methylpiperazin-2-one] | < 0.1 µM
2 | Cn1nc(-c2cc(C(F)(F)F)c(F)c(O)c2F)c2cnc(N3CCCOCC34CC4)cc21 [Compound 9.69, 2,6-Difluoro-3-(1-methyl-6-(8-oxa-4-azaspiro[2.6]nonan-4-yl)-1H-pyrazolo[4,3-c]pyridin-3-yl)-5-(trifluoromethyl)phenol] | < 0.1 µM
3 | Cn1nc(-c2cc(C(F)(F)F)c(F)c(O)c2F)c2cnc(N3CCOCCC34CC4)cc21 [Compound 9.70, 2,6-Difluoro-3-(1-methyl-6-(7-oxa-4-azaspiro[2.6]nonan-4-yl)-1H-pyrazolo[4,3-c]pyridin-3-yl)-5-(trifluoromethyl)phenol] | < 0.1 µM
4 | Oc1c(F)c(-c2nn(C3CCCOC3)c3nc(N4CCOCC45CC5)ccc23)cc(C(F)(F)F)c1F (stereo not shown) [Compound 9.71, 3-(6-(7-Oxa-4-azaspiro[2.5]octan-4-yl)-1-(tetrahydro-2H-pyran-3-yl)-1H-pyrazolo[3,4-b]pyridin-3-yl)-2,6-difluoro-5-(trifluoromethyl)phenol] | 0.1 to 1 µM
5 | COCCn1nc(-c2cc(C(F)(F)F)c(F)c(O)c2F)c2ccc(N3CCOCC34CC4)nc21 [Compound 9.72, 2,6-Difluoro-3-(1-(2-methoxyethyl)-6-(7-oxa-4-azaspiro[2.5]octan-4-yl)-1H-pyrazolo[3,4-b]pyridin-3-yl)-5-(trifluoromethyl)phenol] | < 0.1 µM
6 | COCCn1nc(-c2cc(C(F)(F)F)c(F)c(O)c2F)c2cnc(N3CCOCC34CC4)cc21 [Compound 9.73, 2,6-Difluoro-3-(1-(2-methoxyethyl)-6-(7-oxa-4-azaspiro[2.5]octan-4-yl)-1H-pyrazolo[4,3-c]pyridin-3-yl)-5-(trifluoromethyl)phenol] | < 0.1 µM
7 | Cn1nc(-c2cc(C(F)(F)F)c(F)c(O)c2F)c2cnc(N3CCN(S(C)(=O)=O)CC34CC4)cc21 [Compound 9.74, 2,6-Difluoro-3-(1-methyl-6-(7-(methylsulfonyl)-4,7-diazaspiro[2.5]octan-4-yl)-1H-pyrazolo[4,3-c]pyridin-3-yl)-5-(trifluoromethyl)phenol] | < 0.1 µM
8 | COC1CCN(c2cc3c(cn2)c(-c2cc(C(F)(F)F)c(F)c(O)c2F)nn3C)C2(CCC2)C1 (stereo not shown) [Compound 9.75, 2,6-Difluoro-3-(6-(8-methoxy-5-azaspiro[3.5]nonan-5-yl)-1-methyl-1H-pyrazolo[4,3-c]pyridin-3-yl)-5-(trifluoromethyl)phenol] | < 0.1 µM
9 | Cn1nc(-c2cc(C(F)(F)F)c(F)c(O)c2F)c2cnc(N3CCOCC3C3CCOCC3)cc21 (stereo not shown) [Compound 9.76, 2,6-Difluoro-3-(1-methyl-6-(3-(tetrahydro-2H-pyran-4-yl)morpholino)-1H-pyrazolo[4,3-c]pyridin-3-yl)-5-(trifluoromethyl)phenol] | < 0.1 µM
10 | COCC1CN(c2cc3c(cn2)c(-c2cc(C(F)(F)F)c(F)c(O)c2F)nn3C)CCO1 (stereo not shown) [Compound 9.77, 2,6-Difluoro-3-(6-(2-(methoxymethyl)morpholino)-1-methyl-1H-pyrazolo[4,3-c]pyridin-3-yl)-5-(trifluoromethyl)phenol] | < 0.1 µM
11 | Cn1nc(-c2cc(C(F)(F)F)c(F)c(O)c2F)c2cnc(N3CCOC4(CCC4)C3)cc21 [Compound 9.78, 2,6-Difluoro-3-(1-methyl-6-(5-oxa-8-azaspiro[3.5]nonan-8-yl)-1H-pyrazolo[4,3-c]pyridin-3-yl)-5-(trifluoromethyl)phenol] | < 0.1 µM
12 | Cn1nc(-c2cc(C(F)(F)F)c(F)c(O)c2F)c2cnc(N3CCN(C(=O)O)C(=O)C3)cc21 [Compound 9.79, 4-(3-(2,4-Difluoro-3-hydroxy-5-(trifluoromethyl)phenyl)-1-methyl-1H-pyrazolo[4,3-c]pyridin-6-yl)-2-oxopiperazine-1-carboxylic acid] | 1 to 30 µM
13 | CNC(=O)C1CN(c2cc3c(cn2)c(-c2cc(C(F)(F)F)c(F)c(O)c2F)nn3C)CCO1 (stereo not shown) [Compound 9.80, 4-(3-(2,4-Difluoro-3-hydroxy-5-(trifluoromethyl)phenyl)-1-methyl-1H-pyrazolo[4,3-c]pyridin-6-yl)-N-methylmorpholine-2-carboxamide] | < 0.1 µM
14 | Cn1nc(-c2cc(C(F)(F)F)c(F)c(O)c2F)c2cc(F)c(N3CCOCC34CC4)nc21 [Compound 9.81, 2,6-Difluoro-3-(5-fluoro-1-methyl-6-(7-oxa-4-azaspiro[2.5]octan-4-yl)-1H-pyrazolo[3,4-b]pyridin-3-yl)-5-(trifluoromethyl)phenol] | < 0.1 µM
15 | Cn1nc(-c2cc(C(F)(F)F)c(F)c(O)c2F)c2cnc(N3CCOC4(CCOCC4)C3)cc21 [Compound 9.82, 2,6-Difluoro-3-(1-methyl-6-(1,9-dioxa-4-azaspiro [5.5]undecan-4-yl)-1H-pyrazolo[4,3-c]pyridin-3-yl)-5-(trifluoromethyl)phenol] | < 0.1 µM
16 | COC1CCN(c2cc3c(cn2)c(-c2cc(C(F)(F)F)c(F)c(O)c2F)nn3C)C2(CC2)C1 (stereo not shown) [Compound 9.83, 2,6-Difluoro-3-(6-(7-methoxy-4-azaspiro[2.5]octan-4-yl)-1-methyl-1H-pyrazolo[4,3-c]pyridin-3-yl)-5-(trifluoromethyl)phenol] | < 0.1 µM
17 | Cn1nc(-c2cc(C(F)(F)F)c(F)c(O)c2F)c2cnc(N3CCOCC34CCCC4)cc21 [Compound 9.84, 2,6-Difluoro-3-(1-methyl-6-(9-oxa-6-azaspiro[4.5]decan-6-yl)-1H-pyrazolo[4,3-c]pyridin-3-yl)-5-(trifluoromethyl)phenol] | < 0.1 µM
18 | Cn1nc(-c2cc(C(F)(F)F)c(F)c(O)c2F)c2cnc(N3CCC(C(N)=O)CC34CC4)cc21 (stereo not shown) [Compound 9.85, 4-(3-(2,4-Difluoro-3-hydroxy-5-(trifluoromethyl)phenyl)-1-methyl-1H-pyrazolo[4,3-c]pyridin-6-yl)-4-azaspiro[2.5]octane-7-carboxamide] | 0.1 to 1 µM
19 | COC1(CN(C)c2cc3c(cn2)c(-c2cc(C(F)(F)F)c(F)c(O)c2F)nn3C)CCC1 [Compound 9.86, 2,6-Difluoro-3-(6-(((1-methoxycyclobutyl)methyl)(methyl)amino)-1-methyl-1H-pyrazolo[4,3-c]pyridin-3-yl)-5-(trifluoromethyl)phenol] | < 0.1 µM
20 | CC(=O)N1CCN(c2cc3c(cn2)c(-c2cc(C(F)(F)F)c(F)c(O)c2F)nn3C)C2(CC2)C1 [Compound 9.87, 1-(4-(3-(2,4-Difluoro-3-hydroxy-5-(trifluoromethyl)phenyl)-1-methyl-1H-pyrazolo[4,3-c]pyridin-6-yl)-4,7-diazaspiro[2.5]octan-7-yl)ethanone] | < 0.1 µM
21 | Cn1nc(-c2cc(C(F)(F)F)c(F)c(O)c2F)c2cnc(N3CCOC4(CCS(=O)(=O)CC4)C3)cc21 [Compound 9.88, 4-(3-(2,4-Difluoro-3-hydroxy-5-(trifluoromethyl)phenyl)-1-methyl-1H-pyrazolo[4,3-c]pyridin-6-yl)-1-oxa-9-thia-4-azaspiro[5.5]undecane 9,9-dioxide] | < 0.1 µM
22 | Cn1nc(-c2cc(C(F)(F)F)c(F)c(O)c2F)c2cnc(N3CCOC(C)(C#N)C3)cc21 (stereo not shown) [Compound 9.89, 4-(3-(2,4-Difluoro-3-hydroxy-5-(trifluoromethyl)phenyl)-1-methyl-1H-pyrazolo[4,3-c]pyridin-6-yl)-2-methylmorpholine-2-carbonitrile] | < 0.1 µM
23 | Cn1nc(-c2cc(C(F)(F)F)c(F)c(O)c2F)c2cnc(N3C[C@H]4CC[C@@H](C3)O4)cc21 [Compound 9.90, 3-(6-(cis-8-Oxa-3-azabicyclo[3.2.1]octan-3-yl)-1-methyl-1H-pyrazolo[4,3-c]pyridin-3-yl)-2,6-difluoro-5-(trifluoromethyl)phenol] | < 0.1 µM
24 | Cn1nc(-c2cc(C(F)(F)F)c(F)c(O)c2F)c2cnc(N3CCN(c4ccccc4)C(=O)C3)cc21 [Compound 9.91, 4-(3-(2,4-Difluoro-3-hydroxy-5-(trifluoromethyl)phenyl)-1-methyl-1H-pyrazolo[4,3-c]pyridin-6-yl)-1-phenylpiperazin-2-one] | < 0.1 µM
25 | Cn1nc(-c2cc(C(F)(F)F)c(F)c(O)c2F)c2cnc(N3CCNC(=O)C3)cc21 [Compound 9.92, 4-(3-(2,4-Difluoro-3-hydroxy-5-(trifluoromethyl)phenyl)-1-methyl-1H-pyrazolo[4,3-c]pyridin-6-yl)piperazin-2-one] | 0.1 to 1 µM
26 | COC12CC(CN(c3cc4c(cn3)c(-c3cc(C(F)(F)F)c(F)c(O)c3F)nn4C)C1)C2 [Compound 9.93, 2,6-Difluoro-3-(6-(1-methoxy-3-azabicyclo[3.1.1]heptan-3-yl)-1-methyl-1H-pyrazolo[4,3-c]pyridin-3-yl)-5-(trifluoromethyl)phenol] | < 0.1 µM
27 | Cn1nc(-c2cc(C(F)(F)F)c(F)c(O)c2F)c2cnc(NC3CCOCC3)cc21 [Compound 9.94, 2,6-Difluoro-3-(1-methyl-6-((tetrahydro-2H-pyran-4-yl)amino)-1H-pyrazolo[4,3-c]pyridin-3-yl)-5-(trifluoromethyl)phenol] | < 0.1 µM
28 | CC1COC2(CCC2)CN1c1cc2c(cn1)c(-c1cc(C(F)(F)F)c(F)c(O)c1F)nn2C (stereo not shown) [Compound 9.95, 2,6-Difluoro-3-(1-methyl-6-(7-methyl-5-oxa-8-azaspiro[3.5]nonan-8-yl)-1H-pyrazolo[4,3-c]pyridin-3-yl)-5-(trifluoromethyl)phenol] | < 0.1 µM
